Positions of bridges follow the written chain, without caps; N, C: chain ends. Non-standard residues stand in square brackets, D forms with d. Residues, ends and D or L forms follow the SMILES beside them. *: point of attachment. hPhe(3-Cl-4-CF3) = N[C@@H](CCc1ccc(C(F)(F)F)c(Cl)c1)C(=O)O; NMeAbu(4,4,4-F3) = CN[C@@H](CC(F)(F)F)C(=O)O; NMePhe(4-Cl) = CN[C@@H](Cc1ccc(Cl)cc1)C(=O)O; NMePhe(4-Me) = CN[C@@H](Cc1ccc(C)cc1)C(=O)O; NMePhe(3-F) = CN[C@@H](Cc1cccc(F)c1)C(=O)O; NMePhe(4-F) = CN[C@@H](Cc1ccc(F)cc1)C(=O)O; Phe(3-I) = N[C@@H](Cc1cccc(I)c1)C(=O)O; NMeCha = CN[C@@H](CC1CCCCC1)C(=O)O; NMeGly(cPr) = CN[C@H](C(=O)O)C1CC1; NMeCba = CN[C@@H](CC1CCC1)C(=O)O; NMeChg = CN[C@H](C(=O)O)C1CCCCC1; NMeF = CN[C@@H](Cc1ccccc1)C(=O)O; NMeI = CC[C@H](C)[C@H](NC)C(=O)O; NMeD = CN[C@@H](CC(=O)O)C(=O)O; NMeL = CN[C@@H](CC(C)C)C(=O)O; NMeV = CN[C@H](C(=O)O)C(C)C; Pip = O=C(O)[C@@H]1CCCCN1; Morpholide = C1CN(*)CCO1; NMeA = CN[C@@H](C)C(=O)O; Nle = CCCC[C@H](N)C(=O)O; Piperidide = C1CCN(*)CC1; Ac5c = NC1(C(=O)O)CCCC1; Aze = O=C(O)[C@@H]1CCN1; Sar = CNCC(=O)O
Key:
[1] = target: T1, Kras and SOS1 (biotin-tagged human Kras loaded with GDP, His-tagged human SOS1) (Homo sapiens, UniProt P01116, G12D); test: Protein-protein interaction inhibition between Kras and SOS1 (KrasGl2D-SOS PPI) using AlphaScreen; format: binding; conditions: AlphaScreen; biotin-tagged human Kras loaded with GDP, His-tagged human SOS1; read-out: KRAS G12D-SOS PPI IC50
T1 construct: made in house; host or cells: E. coli (stated for Kras only)
T1 sequence (P01116 1-188 isoform P01116-2 G12D): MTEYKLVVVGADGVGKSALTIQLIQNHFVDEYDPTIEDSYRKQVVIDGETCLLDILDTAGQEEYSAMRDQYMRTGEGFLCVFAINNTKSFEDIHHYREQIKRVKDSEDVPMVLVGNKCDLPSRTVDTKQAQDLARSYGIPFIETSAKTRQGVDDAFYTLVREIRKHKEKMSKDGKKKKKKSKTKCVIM
Procedure, shortened: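 Donor beads (nickel) hold His-SOS1; acceptor beads (streptavidin) hold biotin-Kras bound to GDP. Signal measured at 520-620 nm following 680 nm excitation.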

[2] = test system: Human pancreatic cancer cell line AsPC-1; test: Measurement of AsPC-1 cell growth inhibition (AsPC-1 CGI); format: cell-based; conditions: 96 h
Procedure, shortened: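 AsPC-1 cells in 15% FBS RPMI-1640 were exposed to test compound for 96 hours at 37° C, with CellTiter-Glo as endpoint.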

CC[C@H](C)[C@@H]1NC(=O)[C@H](CC(C)C)N(C)C(=O)C[C@@H](C(=O)N(C)C)N(C)C(=O)[C@H]([C@@H](C)CC)N(C)C(=O)C2(CCCC2)NC(=O)[C@H](C)NC(=O)[C@H](CCc2ccc(C(F)(F)F)c(Cl)c2)NC(=O)CN(C)C(=O)[C@H](Cc2ccc(C)cc2)N(C)C(=O)[C@@H]2CCN2C(=O)[C@H](C)N(C)C1=O [Compound 957] ([NMeL]I[NMeA][Aze][NMePhe(4-Me)][Sar][hPhe(3-Cl-4-CF3)]A[Ac5c][NMeI][NMeD]-NMe2; lactam N-11) showed an IC50 [1] of 0.44 nM and an IC50 [2] of 100 to 500 nM.

For CC[C@H](C)[C@@H]1NC(=O)[C@H](CC(C)C)N(C)C(=O)C[C@@H](C(=O)N(C)C)N(C)C(=O)[C@H]([C@@H](C)CC)N(C)C(=O)C2(CCCC2)NC(=O)[C@H](Cc2ccccc2)N(C)C(=O)[C@H](CCc2ccc(C(F)(F)F)c(Cl)c2)NC(=O)CN(C)C(=O)[C@H](Cc2ccc(C)cc2)N(C)C(=O)[C@@H]2CCN2C(=O)[C@H](C)N(C)C1=O [Compound 958] ([NMeL]I[NMeA][Aze][NMePhe(4-Me)][Sar][hPhe(3-Cl-4-CF3)][NMeF][Ac5c][NMeI][NMeD]-NMe2; lactam N-11), the IC50 [1] was 2.1 nM and the IC50 [2] was 20 to 50 nM.

With CC[C@H](C)[C@@H]1NC(=O)[C@H](CC(C)C)N(C)C(=O)C[C@@H](C(=O)N2CCCCC2)N(C)C(=O)[C@H](CC2CCC2)N(C)C(=O)C2(CCCC2)NC(=O)[C@@H]2CCCN2C(=O)[C@H](CCc2ccc(C(F)(F)F)c(Cl)c2)NC(=O)CN(C)C(=O)[C@H](CC2CCCCC2)N(C)C(=O)CN(C)C(=O)CN(C)C1=O [Compound 968] ([NMeL]I[Sar][Sar][NMeCha][Sar][hPhe(3-Cl-4-CF3)]P[Ac5c][NMeCba][NMeD]-Piperidide; lactam N-11) the IC50 [1] was 3.1 nM and the IC50 [2] was 100 to 500 nM.

CC[C@H](C)[C@@H]1NC(=O)[C@H](C2CC2)N(C)C(=O)C[C@@H](C(=O)N2CCCCC2)N(C)C(=O)[C@H](C(C)C)N(C)C(=O)C2(CCCC2)NC(=O)[C@@H]2CCCN2C(=O)[C@H](CCc2ccc(C(F)(F)F)c(Cl)c2)NC(=O)CN(C)C(=O)[C@H](CC2CCCCC2)N(C)C(=O)CN(C)C(=O)CN(C)C1=O [Compound 980] ([NMeGly(cPr)]I[Sar][Sar][NMeCha][Sar][hPhe(3-Cl-4-CF3)]P[Ac5c][NMeV][NMeD]-Piperidide; lactam N-11) was tested, and the IC50 [1] was 3.8 nM and the IC50 [2] was 100 to 500 nM.

CC[C@H](C)[C@@H]1NC(=O)[C@H](CC2CCCCC2)N(C)C(=O)C[C@@H](C(=O)N2CCCCC2)N(C)C(=O)[C@H](C2CCCCC2)N(C)C(=O)C2(CCCC2)NC(=O)[C@@H]2CCCN2C(=O)[C@H](CCc2ccc(C(F)(F)F)c(Cl)c2)NC(=O)CN(C)C(=O)[C@H](CC2CCCCC2)N(C)C(=O)CN(C)C(=O)CN(C)C1=O [Compound 983] ([NMeCha]I[Sar][Sar][NMeCha][Sar][hPhe(3-Cl-4-CF3)]P[Ac5c][NMeChg][NMeD]-Piperidide; lactam N-11) showed an IC50 [1] of 1.8 nM and an IC50 [2] of 100 to 500 nM.

Work on CC[C@H](C)[C@@H]1NC(=O)[C@H](CC(C)C)N(C)C(=O)C[C@@H](C(=O)N2CCCCC2)N(C)C(=O)[C@H](C(C)C)N(C)C(=O)C2(CCCC2)NC(=O)[C@@H]2CCCN2C(=O)[C@H](CCc2ccc(C(F)(F)F)c(Cl)c2)NC(=O)CN(C)C(=O)[C@H](CC2CCCCC2)N(C)C(=O)[C@@H]2CCN2C(=O)[C@@H]2CCCCN2C1=O [Compound 988] ([NMeL]I[Pip][Aze][NMeCha][Sar][hPhe(3-Cl-4-CF3)]P[Ac5c][NMeV][NMeD]-Piperidide; lactam N-11) yielded an IC50 [1] of 12 nM and an IC50 [2] of 100 to 500 nM.

Work on CCCC[C@@H]1NC(=O)[C@H](Cc2cccc(I)c2)NC(=O)CN(C)C(=O)[C@H](Cc2ccc(Cl)cc2)N(C)C(=O)CN(C)C(=O)CN(C)C(=O)[C@H]([C@@H](C)CC)NC(=O)[C@H](CC(C)C)N(C)C(=O)C[C@@H](C(=O)N2CCCCC2)N(C)C(=O)[C@H](CC(C)C)NC(=O)[C@H](Cc2ccc(F)cc2)N(C)C1=O [Compound 997] ([NMeL]I[Sar][Sar][NMePhe(4-Cl)][Sar][Phe(3-I)][Nle][NMePhe(4-F)]L[NMeD]-Piperidide; lactam N-11) yielded an IC50 [1] of 24 nM and an IC50 [2] of 100 to 500 nM.

Work on CC[C@H](C)[C@@H]1NC(=O)[C@H](CC(C)C)N(C)C(=O)C[C@@H](C(=O)N(C)C)N(C)C(=O)[C@H]([C@@H](C)CC)N(C)C(=O)C2(CCCC2)NC(=O)[C@H](Cc2cccc(F)c2)N(C)C(=O)[C@H](CCc2ccc(C(F)(F)F)c(Cl)c2)NC(=O)CN(C)C(=O)[C@H](Cc2ccc(C)cc2)N(C)C(=O)[C@@H]2CCN2C(=O)[C@H](C)N(C)C1=O [Compound 1000] ([NMeL]I[NMeA][Aze][NMePhe(4-Me)][Sar][hPhe(3-Cl-4-CF3)][NMePhe(3-F)][Ac5c][NMeI][NMeD]-NMe2; lactam N-11) yielded an IC50 [1] of 2.6 nM and an IC50 [2] of 20 to 50 nM.

CC[C@H](C)[C@@H]1NC(=O)[C@H](CC(F)(F)F)N(C)C(=O)C[C@@H](C(=O)N2CCOCC2)N(C)C(=O)[C@H](C2CCCCC2)N(C)C(=O)C2(CCCC2)NC(=O)[C@@H]2CCCN2C(=O)[C@H](CCc2ccc(C(F)(F)F)c(Cl)c2)NC(=O)CN(C)C(=O)[C@H](Cc2ccc(C)cc2)N(C)C(=O)CN(C)C(=O)CN(C)C1=O [Compound 1001] ([NMeAbu(4,4,4-F3)]I[Sar][Sar][NMePhe(4-Me)][Sar][hPhe(3-Cl-4-CF3)]P[Ac5c][NMeChg][NMeD]-Morpholide; lactam N-11) was tested, and the IC50 [1] was 0.44 nM and the IC50 [2] was 20 to 50 nM.

Reference: patent US12371454B2, “Cyclic peptide compound having Kras inhibitory action” (priority 2019, dated 2025)
